Measured values as given in ChEMBL document CHEMBL1201862, “PubChem BioAssay data set” (2004).
The source made the active and inactive calls.

Assays:
Streptokinase A = biological target: T1, Streptokinase A (Streptococcus pyogenes serotype M1, UniProt P10520); assay: S. pyogenes streptokinase expression inhibitors, potency, dose response, plasminogen activation absorbance, OD405 (AID 1914); assay type: functional, Streptococcus pyogenes M1 GAS;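 note: secreted streptokinase activity via plasminogen activation per viability signal from cell pellet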
T1 sequence (P10520 whole entry): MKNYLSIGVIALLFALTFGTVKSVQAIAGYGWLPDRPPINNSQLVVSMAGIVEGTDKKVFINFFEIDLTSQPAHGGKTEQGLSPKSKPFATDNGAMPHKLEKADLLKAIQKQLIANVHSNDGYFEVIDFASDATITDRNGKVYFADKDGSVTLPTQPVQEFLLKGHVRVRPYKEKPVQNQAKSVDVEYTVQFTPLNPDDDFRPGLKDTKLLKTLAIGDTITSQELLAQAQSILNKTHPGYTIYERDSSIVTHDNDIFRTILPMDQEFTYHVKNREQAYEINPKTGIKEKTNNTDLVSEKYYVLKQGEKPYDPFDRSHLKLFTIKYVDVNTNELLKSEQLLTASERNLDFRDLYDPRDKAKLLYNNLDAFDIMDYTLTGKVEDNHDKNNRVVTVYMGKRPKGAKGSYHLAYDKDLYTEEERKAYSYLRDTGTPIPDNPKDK

[1] = biological target: Heat shock cognate 71 kDa protein (Homo sapiens, UniProt P11142); assay: In Vitro Hsc70 Dose Response Fluorescence Polarization Assay. [Related pubchem assays: 1072 ]
[2] = biological target: Glyceraldehyde-3-phosphate dehydrogenase (Homo sapiens, UniProt P04406)
[3] = biological target: Eukaryotic translation initiation factor 4E (Mus musculus, UniProt P63073); assay: eIF4E–eIF4G protein interaction inhibitors, dose response, biochemical, TR-FRET (AID 855); assay type: functional;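 note: potency for disrupting eIF4E binding to eIF4GI seen as loss of FRET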
[4] = biological target: Runt-related transcription factor 1/Core-binding factor subunit beta (Homo sapiens, UniProt Q01196+Q13951); assay: inhibitors of RUNX1 Runt–CBFb-SMMHC binding, biochemical, TR-FRET (AID 1438); assay type: protein assay
Insulin receptor = Insulin receptor (Homo sapiens, UniProt P06213); assay type: functional;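 note: insulin receptor kinase tested as one member of a kinome-wide kinase panel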
[5] = biological target: Maternal embryonic leucine zipper kinase (Homo sapiens, UniProt Q14680); assay type: functional
[6] = biological target: Mitogen-activated protein kinase 13 (Homo sapiens, UniProt O15264); assay type: functional
[7] = biological target: Calcium/calmodulin-dependent protein kinase type II subunit gamma (Homo sapiens, UniProt Q13555); assay type: functional
[8] = biological target: Interleukin-1 receptor-associated kinase 4 (Homo sapiens, UniProt Q9NWZ3); assay type: functional
[9] = biological target: Casein kinase I isoform gamma-1 (Homo sapiens, UniProt Q9HCP0); assay type: functional;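 note: measured as the CSNK1G1 member of a kinome profiling panel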
[10] = biological target: Mitogen-activated protein kinase kinase kinase kinase 5 (Homo sapiens, UniProt Q9Y4K4); assay type: functional;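 note: measured as one member of a kinome-spanning kinase panel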
[11] = biological target: Tyrosine-protein kinase BTK (Homo sapiens, UniProt Q06187); assay type: functional
[12] = biological target: Rho-associated protein kinase 2 (Homo sapiens, UniProt O75116); assay type: functional
[13] = biological target: Serine/threonine-protein kinase pim-3 (Homo sapiens, UniProt Q86V86); assay type: functional;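 note: value obtained as one member of a broad kinase panel profiling effort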
[14] = biological target: Calcium/calmodulin-dependent protein kinase type II subunit alpha (Homo sapiens, UniProt Q9UQM7); assay: Navigating the Kinome. Panel member name: CAMK2A; assay type: functional
[15] = biological target: Inhibitor of nuclear factor kappa-B kinase subunit epsilon (Homo sapiens, UniProt Q14164); assay: Navigating the Kinome. Panel member name: IKBKE; assay type: functional
[16] = biological target: Ribosomal protein S6 kinase alpha-3 (Homo sapiens, UniProt P51812); assay type: functional;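 note: measured within a kinome-wide profiling panel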
[17] = biological target: Serine/threonine-protein kinase TBK1 (Homo sapiens, UniProt Q9UHD2); assay: Navigating the Kinome. Panel member name: TBK1; assay type: functional
Albumin = Albumin (Bos taurus, UniProt P02769); assay: Counterscreen for inhibitors of T-cell receptor (TCR)-CD3 interaction: Fluorescence-based biochemical high throughput dose response assay to identify inhibitors of T-cell receptor (TCR)-CD3 interaction using a TAMRA-labeled BSA probe.; assay type: functional
[18] = cytotoxicity toward DRD oncogenic fibroblasts, dose response, cell-based, non-viral oncogenic, luminescence (AID 1934); assay type: functional; conditions: Homo sapiens
[19] = cytotoxicity in HEK-293T cells, dose response, cytotoxicity control for TCR NF-kB inhibitor project, luminescence, T-cell screen hits (AID 489026); assay type: functional, cell-based;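 note: cells exposed to compound about 14 hours before the viability readout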
[20] = biological target: DNA dC->dU-editing enzyme APOBEC-3G (Homo sapiens, UniProt Q9HC16); assay: Dose Response confirmation of small molecule APOBEC3G DNA Deaminase Inhibitors via a fluorescence-based single-stranded DNA deaminase assay. [Related pubchem assays (depositor defined):AID493012, AID493028]; assay type: functional
[21] = biological target: Heat shock protein HSP 90-alpha (Homo sapiens, UniProt P07900); assay type: functional, organism-based

Interleukin-1 receptor-associated kinase 4, sequence (Q9NWZ3 whole entry, canonical isoform): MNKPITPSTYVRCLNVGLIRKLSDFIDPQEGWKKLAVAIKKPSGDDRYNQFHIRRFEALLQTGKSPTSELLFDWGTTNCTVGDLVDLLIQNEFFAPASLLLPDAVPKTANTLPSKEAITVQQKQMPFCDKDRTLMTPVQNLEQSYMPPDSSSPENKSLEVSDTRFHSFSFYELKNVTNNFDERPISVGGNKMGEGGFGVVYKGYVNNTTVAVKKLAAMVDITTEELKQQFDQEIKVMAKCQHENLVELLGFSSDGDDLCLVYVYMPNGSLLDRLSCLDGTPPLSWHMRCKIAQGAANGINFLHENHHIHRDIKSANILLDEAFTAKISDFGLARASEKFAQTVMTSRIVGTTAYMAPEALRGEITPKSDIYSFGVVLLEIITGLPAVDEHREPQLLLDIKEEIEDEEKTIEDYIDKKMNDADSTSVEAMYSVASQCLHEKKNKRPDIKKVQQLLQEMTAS
Insulin receptor, sequence (P06213 28-758 limits assumed): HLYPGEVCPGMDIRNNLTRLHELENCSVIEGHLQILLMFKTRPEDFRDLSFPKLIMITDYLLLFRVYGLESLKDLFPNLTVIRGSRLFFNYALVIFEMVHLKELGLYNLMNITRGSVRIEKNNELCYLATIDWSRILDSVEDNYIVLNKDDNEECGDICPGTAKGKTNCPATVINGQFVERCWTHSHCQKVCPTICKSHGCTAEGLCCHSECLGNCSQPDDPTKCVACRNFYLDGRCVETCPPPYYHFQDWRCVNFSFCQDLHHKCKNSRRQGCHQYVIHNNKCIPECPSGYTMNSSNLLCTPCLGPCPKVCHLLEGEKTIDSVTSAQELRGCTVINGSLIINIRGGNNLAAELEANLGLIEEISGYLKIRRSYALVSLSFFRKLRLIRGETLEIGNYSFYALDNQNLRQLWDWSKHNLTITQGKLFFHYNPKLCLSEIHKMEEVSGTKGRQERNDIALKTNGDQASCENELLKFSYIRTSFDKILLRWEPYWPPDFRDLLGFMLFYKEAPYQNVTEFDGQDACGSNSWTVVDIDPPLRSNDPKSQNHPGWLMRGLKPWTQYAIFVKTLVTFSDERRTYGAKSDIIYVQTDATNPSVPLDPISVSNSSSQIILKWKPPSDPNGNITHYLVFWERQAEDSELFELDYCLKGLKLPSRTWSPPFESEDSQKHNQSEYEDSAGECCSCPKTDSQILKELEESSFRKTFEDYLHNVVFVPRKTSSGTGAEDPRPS
Insulin receptor, sequence (P06213 763-1382 limits assumed): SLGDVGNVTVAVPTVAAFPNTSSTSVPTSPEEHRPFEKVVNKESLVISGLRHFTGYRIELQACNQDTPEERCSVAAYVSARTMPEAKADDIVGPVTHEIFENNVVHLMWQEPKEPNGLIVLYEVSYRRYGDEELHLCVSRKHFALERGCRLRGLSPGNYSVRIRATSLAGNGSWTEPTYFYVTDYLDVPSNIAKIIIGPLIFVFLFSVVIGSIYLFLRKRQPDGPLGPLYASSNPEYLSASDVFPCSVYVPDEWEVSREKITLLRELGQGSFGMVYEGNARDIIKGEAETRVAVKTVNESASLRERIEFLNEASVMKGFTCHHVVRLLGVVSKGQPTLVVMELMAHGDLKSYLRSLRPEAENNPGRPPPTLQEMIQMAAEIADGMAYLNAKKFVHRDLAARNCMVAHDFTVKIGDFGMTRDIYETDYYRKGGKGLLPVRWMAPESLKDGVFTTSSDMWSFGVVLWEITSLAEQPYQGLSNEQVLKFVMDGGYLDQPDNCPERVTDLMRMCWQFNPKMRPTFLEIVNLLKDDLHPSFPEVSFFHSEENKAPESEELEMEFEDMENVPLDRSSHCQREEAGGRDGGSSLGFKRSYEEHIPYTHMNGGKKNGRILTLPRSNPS
Mitogen-activated protein kinase 13, sequence (O15264 whole entry): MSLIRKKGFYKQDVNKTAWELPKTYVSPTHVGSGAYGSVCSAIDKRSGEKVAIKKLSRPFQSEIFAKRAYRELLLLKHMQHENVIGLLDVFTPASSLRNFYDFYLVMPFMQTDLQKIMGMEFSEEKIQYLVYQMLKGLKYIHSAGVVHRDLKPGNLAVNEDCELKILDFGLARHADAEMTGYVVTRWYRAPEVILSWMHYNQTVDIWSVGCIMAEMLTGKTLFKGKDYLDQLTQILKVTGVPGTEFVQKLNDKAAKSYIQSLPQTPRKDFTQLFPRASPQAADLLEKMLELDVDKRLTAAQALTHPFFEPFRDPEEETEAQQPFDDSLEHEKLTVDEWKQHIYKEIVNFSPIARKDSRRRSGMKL
Calcium/calmodulin-dependent protein kinase type II subunit alpha, sequence (Q9UQM7 whole entry): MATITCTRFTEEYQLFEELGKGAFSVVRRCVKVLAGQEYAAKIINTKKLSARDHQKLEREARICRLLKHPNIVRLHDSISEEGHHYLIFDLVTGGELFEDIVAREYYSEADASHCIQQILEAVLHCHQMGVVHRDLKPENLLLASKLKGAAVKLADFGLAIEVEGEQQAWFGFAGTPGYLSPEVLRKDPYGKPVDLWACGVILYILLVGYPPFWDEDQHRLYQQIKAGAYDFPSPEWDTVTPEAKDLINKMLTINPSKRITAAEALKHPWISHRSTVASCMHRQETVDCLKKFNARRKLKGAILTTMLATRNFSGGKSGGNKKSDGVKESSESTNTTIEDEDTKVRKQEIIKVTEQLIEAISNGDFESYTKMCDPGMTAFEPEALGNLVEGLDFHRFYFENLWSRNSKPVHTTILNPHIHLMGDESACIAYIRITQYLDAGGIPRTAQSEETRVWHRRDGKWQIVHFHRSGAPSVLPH
Mitogen-activated protein kinase kinase kinase kinase 5, sequence (Q9Y4K4 whole entry): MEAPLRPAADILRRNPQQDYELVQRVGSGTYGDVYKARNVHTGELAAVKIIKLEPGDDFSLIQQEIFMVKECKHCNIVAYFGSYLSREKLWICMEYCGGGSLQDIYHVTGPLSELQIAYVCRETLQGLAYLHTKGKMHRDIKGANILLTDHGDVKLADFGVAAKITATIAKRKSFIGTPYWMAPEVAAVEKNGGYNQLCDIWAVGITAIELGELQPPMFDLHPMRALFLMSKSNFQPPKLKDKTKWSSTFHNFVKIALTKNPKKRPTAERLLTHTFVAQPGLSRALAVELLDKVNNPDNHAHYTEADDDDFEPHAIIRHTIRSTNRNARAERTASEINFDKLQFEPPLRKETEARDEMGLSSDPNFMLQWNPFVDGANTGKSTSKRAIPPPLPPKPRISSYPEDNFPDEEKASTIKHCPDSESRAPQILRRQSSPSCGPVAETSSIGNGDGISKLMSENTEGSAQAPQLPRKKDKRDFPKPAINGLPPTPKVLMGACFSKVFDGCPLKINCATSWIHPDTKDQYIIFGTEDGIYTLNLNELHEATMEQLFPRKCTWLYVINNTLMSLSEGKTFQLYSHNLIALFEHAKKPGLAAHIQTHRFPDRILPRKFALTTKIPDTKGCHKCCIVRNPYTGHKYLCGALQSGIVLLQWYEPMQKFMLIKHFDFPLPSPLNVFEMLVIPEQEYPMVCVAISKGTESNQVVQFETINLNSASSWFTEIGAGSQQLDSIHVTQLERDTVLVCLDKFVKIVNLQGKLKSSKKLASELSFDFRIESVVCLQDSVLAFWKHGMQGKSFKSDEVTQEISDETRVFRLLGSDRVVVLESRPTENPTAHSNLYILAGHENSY
Calcium/calmodulin-dependent protein kinase type II subunit gamma, sequence (Q13555 whole entry): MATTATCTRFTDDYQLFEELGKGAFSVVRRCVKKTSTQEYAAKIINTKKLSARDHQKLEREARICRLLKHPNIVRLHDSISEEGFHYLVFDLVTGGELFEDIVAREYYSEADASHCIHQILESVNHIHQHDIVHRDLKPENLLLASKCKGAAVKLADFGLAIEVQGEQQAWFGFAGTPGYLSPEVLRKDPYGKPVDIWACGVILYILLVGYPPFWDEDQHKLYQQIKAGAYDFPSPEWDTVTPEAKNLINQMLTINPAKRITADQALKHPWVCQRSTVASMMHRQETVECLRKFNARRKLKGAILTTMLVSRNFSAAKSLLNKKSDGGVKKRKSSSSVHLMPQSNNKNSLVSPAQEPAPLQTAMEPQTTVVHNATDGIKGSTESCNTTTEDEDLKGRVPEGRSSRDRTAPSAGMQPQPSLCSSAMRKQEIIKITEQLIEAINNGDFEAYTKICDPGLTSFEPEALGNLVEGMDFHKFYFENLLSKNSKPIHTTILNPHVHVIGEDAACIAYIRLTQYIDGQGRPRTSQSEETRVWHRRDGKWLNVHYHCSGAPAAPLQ
Tyrosine-protein kinase BTK, sequence (Q06187 whole entry): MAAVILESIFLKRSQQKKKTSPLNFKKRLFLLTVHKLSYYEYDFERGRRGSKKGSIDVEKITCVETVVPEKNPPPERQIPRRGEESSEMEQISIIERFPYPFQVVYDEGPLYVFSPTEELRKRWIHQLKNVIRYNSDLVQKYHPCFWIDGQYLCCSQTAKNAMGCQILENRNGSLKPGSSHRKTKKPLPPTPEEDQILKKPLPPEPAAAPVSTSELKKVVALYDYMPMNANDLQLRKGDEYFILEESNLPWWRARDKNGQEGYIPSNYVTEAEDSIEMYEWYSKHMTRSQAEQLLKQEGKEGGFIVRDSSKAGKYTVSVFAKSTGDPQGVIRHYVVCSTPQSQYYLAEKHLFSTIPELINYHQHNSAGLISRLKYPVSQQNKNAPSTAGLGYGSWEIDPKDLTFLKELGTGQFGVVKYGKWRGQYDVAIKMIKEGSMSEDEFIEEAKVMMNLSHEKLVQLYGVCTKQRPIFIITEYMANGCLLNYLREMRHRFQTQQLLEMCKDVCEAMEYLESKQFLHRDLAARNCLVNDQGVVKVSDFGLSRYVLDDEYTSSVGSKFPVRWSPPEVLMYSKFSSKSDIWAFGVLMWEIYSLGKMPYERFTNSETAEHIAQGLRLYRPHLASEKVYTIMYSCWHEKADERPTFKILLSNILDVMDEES
Eukaryotic translation initiation factor 4E, sequence (P63073 whole entry): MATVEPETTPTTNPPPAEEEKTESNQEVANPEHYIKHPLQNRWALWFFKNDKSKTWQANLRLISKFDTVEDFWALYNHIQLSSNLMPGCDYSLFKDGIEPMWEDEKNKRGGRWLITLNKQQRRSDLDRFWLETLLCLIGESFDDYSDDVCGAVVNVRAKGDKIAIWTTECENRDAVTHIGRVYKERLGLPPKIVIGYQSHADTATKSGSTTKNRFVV

CC(C)(C)c1cc[n+](C2=C([N-]S(=O)(=O)c3cccs3)C(=O)c3ccccc3C2=O)cc1
EC50 (Streptokinase A): 3.8 µM (active)

COc1cccc2c1NC(C(=O)O)C1CC=CC21 (centres undefined)
IC50 [1]: 25.2 µM (active)
IC50 [2]: 88.9 µM (active)
IC50 [3]: 12.8 µM (active)
IC50 [4]: 15.4 µM (active)

Cc1ccc(F)c(NC(=O)Nc2ccc(-c3cccc4[nH]nc(N)c34)cc2)c1 [LINIFANIB]
Ki (Insulin receptor): 0.794 µM (active)
Ki [5]: 2 µM (active)
Ki [6]: 2.51 µM (active)
Ki [7]: 3.98 µM (active)
Ki [8]: 2.51 µM (active)
Ki [9]: 5.01 µM (active)
Ki [10]: 0.316 µM (active)
Ki [11]: > 6.31 µM (inactive)
pKi [12]: 5.6
Ki [13]: > 7.94 µM (inactive)

COc1c(-c2nc3ccccc3[nH]2)c(O)cc2oc(C)cc(=O)c12
Ki [14]: 1 µM (active)
Ki [15]: 2 µM (active)
Ki [16]: 0.794 µM (active)
Ki [17]: 1.58 µM (active)

Cc1cc([N+](=O)[O-])cc(/C=N\NC(=O)C2COc3ccccc3O2)c1O (centres undefined)
IC50 (Albumin): > 94.2 µM (inactive)

CCc1ccc(S(=O)(=O)/N=C2\C=C(Nc3ccc(O)cc3)C(=O)c3ccccc32)cc1
EC50 [18]: 3.33 µM (active)
IC50 [19]: 3.96 µM (active)

O=C1/C(=C\c2cccc(O)c2O)SC(=S)N1Cc1ccccc1
IC50 [20]: 47.2 µM (active)
AC50 [21]: 13.4 µM (active)
